Source: PubChem BioAssay (NCI)
Values joined by “and” are separate entries in the source; they are usually repeats but may differ in a detail not shown here. Equal values may be shown once.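 1) Cells in 96-well plates. 2) Compound, 48 h, 5 concentrations. 3) Linear interpolation between surrounding doses. 4) Unreached endpoint = highest concentration. Abbreviation: GI50, concentration required for 50% inhibition of growth. TGI: concentration producing complete growth inhibition.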

Test system: MDA-MB-468 breast
Assay: NCI tumour cell line growth inhibition, 48 h

| Compound | GI50 | TGI |
| --- | --- | --- |
| Cc1ncc(CCCN(C)C)cc1Nc1ncc2c(n1)-c1ccc(C(F)(F)F)cc1NC(=S)C2 | < 21.2 nM | 1.58 µM |
| COC(=O)[C@H]1[C@@H](O)[C@@]2(O)c3c(OC)cc(OC)cc3O[C@@]2(c2ccc(OC)cc2)[C@@H]1c1ccccc1 | 7.83 nM | 0.116 µM |
| O=S(=O)(Nc1cc(Sc2cccc3cccnc23)c(O)c2ccccc12)c1ccccc1 | 1290 nM | 3.2 µM |
| CCOC(=O)c1sc(NCC(=O)Nc2cccc([N+](=O)[O-])c2)c(C(=O)OCC)c1C | 670 nM | 2.23 µM |
| COc1cc(C(=O)c2cc(C)c3[nH]c4ccc(C)cc4c3c2C)cc(OC)c1OC | < 10 nM | 3.68 µM |
| O=c1cc(NC2CCN(CCCc3ccccc3)CC2)c2cc(Cl)ccc2o1 | 5820 nM | 21.8 µM |
| CC(C)C[C@H](NC(=O)/C=C/Cn1ccc2ccccc2c1=O)B(O)O | 681 nM | 4.71 µM |
| Nc1nc(F)nc2c1ncn2C1OC(CO)C(O)C1O (stereo not given) | > 85600 nM | > 100 µM |
| CCc1nc(C(N)=O)c(Nc2ccc(N3CCC(N4CCN(C)CC4)CC3)c(OC)c2)nc1NC1CCOCC1 | 12200 nM and 14000 nM | 27.7 µM and > 2.37 µM and 31.8 µM |
| COc1ccc(/C=N/NC(=O)c2[nH]c3ccc(Br)cc3c2-c2ccccc2)o1 | 58.8 nM | 3.36 µM |
| Nc1ccc2cc3ccc(N)cc3nc2c1 | 531 nM | 2.22 µM |
| Nc1ccc(-c2nc3ccc(Cc4ccc5nc(-c6ccc(N)cc6)[nH]c5c4)cc3[nH]2)cc1 | 1470 nM | 2.9 µM |
| CC1=C[C@H]2c3c(c(O)c(O)c4oc(-c5ccccc5)cc(=O)c34)[C@H](c3cc(O)c(O)c4oc(-c5ccccc5)cc(=O)c34)[C@H]2C(C)(C)C1 | 1380 nM | 4.76 µM |
| O=C1Nc2ccc(F)cc2/C1=C/c1ccc[nH]1 | 203 nM | 1.5 µM |
| CN(C)C(=O)[C@H](O)[C@H](Cc1ccccc1)NC(=O)c1cc2cc(Cl)ccc2[nH]1 | 20100 nM | 77.6 µM |
| Cc1[nH]c2ccccc2c(=O)c1CC=C(Cl)Cl | 18800 nM | > 100 µM |
| CC1(C)[C@@H](OC(N)=O)[C@H]2O[C@H]2[C@]2(C=O)[C@H]3CC[C@]4(C)[C@@H](c5ccc(=O)oc5)[C@@H](Cl)C[C@]4(O)C3=CC[C@@H]12 | 6.2 nM | 0.0178 µM |
| COc1ccc(/C=C/C(=O)C(CC2CCC2)C(=O)/C=C/c2ccc(OC)c(OC)c2)cc1OC | 1590 nM | 3.69 µM |
| COc1cccc2c(=O)c3c(sc12)c(N1CCNCC1)nc1ccccc13 | 1660 nM | 3.3 µM |
| CCn1c(SCc2ccc(C)cc2)nnc1-c1nn(-c2ccc(Cl)cc2Cl)c(-c2ccc(Cl)cc2)c1C | 623 nM | 10.6 µM |
